{"source": "patent US20160220464A1", "about": "(WUHAN OPTICS VALLEY BRIDGEBIOMED INTERNATIONAL CORPORATION, priority 2013, published 2016)", "key": {"[1]": {"assay": "Transdermal experiment, modified Franz diffusion pool with HPLC", "format": "in vitro ADME, mice", "protocol": "To explore the optimized dosage form and preparation technology of BK B2 receptor agonist, we selected YLB-01, which has the long-term stability for preservation, as a sample from three agonists (YLB-01, YLB-02, YLB-03) and prepared three kinds of dosage form, analyzed by transdermal experiments and high-performance liquid phase (HPLC) content analysis. Three dosage forms (liniments, gels and ointments) of […] were prepared in different concentrations (0.03%, 0.3% and 3%). Then, different proportional of transdermal promoters was added to perform transdermal experiments. The transdermal effects of three kinds of YLB-01 formulation were evaluated by the modified Franz diffusion pool. Cumulative transmittance of liniments, gels and ointments in 0.3% concentration of YLB-01 for 9 hours was measured respectively. Results: (1) The best transdermal promoter ratio of liniments, gels and ointments were 2% propylene glycol+2% azone, 4% propylene glycol, and 5% propylene glycol+2% azone. (2) 9 hours of cumulative transmittance of 0.03%, 0.3%, 3% liniments were 4.23%, 10.96% and 12.17%, respectively; 9 hours of cumulative transmittance of 0.03%, 0.3%, 3% gels were 2.29%, 4.43% and 13.57%, respectively; 9 hours of cumulative transmittance of 0.03%, 0.3%, 3% ointments were 2.08%, 1.12% and 0.73%, respectively. Conclusion: The different contents of […] liniments, gels and ointments are all have some transdermal abilities, and the abilities are: liniments>gels>ointments.\nTo determine the optimal dosage form of YLB-01 and best transdermal promoter, we plan to use transdermal test combined with HPLC content analysis as screening basis, research on dosage forms and transdermal promoter to achieve a stable and reliable preparation. The samples were analyzed by HPLC on an Agilent TC-C18 column (150 mm×4.6 mm, 5 microns). The mobile phases were methanol and 0.02 mol/L potassium dihydrogen phosphate buffer (66:34, pH was adjusted to 4 with phosphoric acid). Flow rate: 1 ml/min; Column temperature: 30° C. Excitation wavelength and fluorescent wavelength of fluorescence detection were 267 nm and 380 nm, respectively. Under this condition, YLB-01 retention time was 3.898 min, target compounds peak shape is good which could be effectively separated, and no impurity peak, baseline is smooth (shown as FIG. 6).\nThe abdominal hair of mice was removed. The mice were sacrificed by spinal dislocation. The subcutaneous fat was removed, and the depilous skin of abdomen was reserved in 4° C. physiological saline. Skin was fixed between the supply room and reception room facing the supply room. The effective permeability area was 4 cm^2. Receiving liquid was physiological saline, and receiving chamber volume V were 25 ml. 1.0 g of the tested sample was coated evenly on the effective skin surface with the electromagnetic stirrer run at a speed of 300 r/min. To take out the receiving liquid in 1, 2, 3, 4, 5, 6, 7, 8, 9 h, 0.5 ml/h (Complementing the same quantity each time), the samples were centrifuged and the supernatant was took for HPLC analysis.\nAfter the detection, the cumulative transmittance P (%) was calculated:\nV: the volume of receiving liquid in receiving room; Ci: drug concentration in receiving liquid between the time to last time of the i time; Cn: drug concentration in the receiving liquid when the n time taking the sample; M: drug content in the sample."}, "[2]": {"target": "T1, BK B2 receptor (Homo sapiens, UniProt P30411)", "T1 construct": "The cell strains used in the study were human primary vein endothelial cells (HPVEC) and human aortic smooth muscle cells (HASMC); endogenous in cells; host or cells: human primary vein endothelial cells (HPVEC) and human aortic smooth muscle cells (HASMC)", "T1 sequence (P30411 1-391)": "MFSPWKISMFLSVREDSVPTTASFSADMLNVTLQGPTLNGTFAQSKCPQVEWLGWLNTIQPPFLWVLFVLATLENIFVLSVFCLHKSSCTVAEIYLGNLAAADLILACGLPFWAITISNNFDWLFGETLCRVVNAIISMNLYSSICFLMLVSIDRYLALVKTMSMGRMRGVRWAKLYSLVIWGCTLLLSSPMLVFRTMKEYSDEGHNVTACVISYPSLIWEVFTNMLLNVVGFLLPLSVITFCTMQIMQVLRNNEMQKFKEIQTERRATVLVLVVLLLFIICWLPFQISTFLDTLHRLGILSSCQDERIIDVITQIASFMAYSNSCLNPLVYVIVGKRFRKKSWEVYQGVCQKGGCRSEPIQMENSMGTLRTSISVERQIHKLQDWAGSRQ", "assay": "Relative amount of PG secretion in cell supernatant by enzyme immunoassay (EIA)", "format": "cell-based", "settings": "1 h, 1 μM BK set as 100%", "protocol": "YLB-01, YLB-02 and YLB-03 were selected for the study as described below in Table 1, and BK was used as control. Implantation Two cell lines were transferred into T-75 cell culture flask, and then the instructions of PG kit were strictly followed when cells have reached the appropriate density. Day 1 Cells were seeded in 24 well dishes with minimum medium and allowed to adhere overnight. Day 2 Cells were starved in the serum-free conditioned medium. […] The supernatant was collected after incubation for later use. Day 4 24 well dishes were washed and then dyed for 45-90 min, and then the OD value was measured for analysis. […] In order to detect endogenous prostaglandin, enzyme immunoassay (EIA) was used to determine the amount of prostaglandin and subtypes thereof in the cell supernatant described above."}, "[3]": {"target": "T2, bradykinin (BK) B2 receptors (Homo sapiens, UniProt P30411)", "T2 construct": "The cell strains used in the study were human primary vein endothelial cells (HPVEC) and human aortic smooth muscle cells (HASMC); endogenous in cells; host or cells: human primary vein endothelial cells (HPVEC) and human aortic smooth muscle cells (HASMC)", "T2 sequence (P30411 1-391)": "T1 sequence (P30411 1-391)", "assay": "PG secretion by BK B2 receptor agonists (PG kit, OD), EC50 and Emax", "format": "cell-based", "settings": "HASMC; for Emax: relative to BK", "protocol": "Implantation Two cell lines were transferred into T-75 cell culture flask, and then the instructions of PG kit were strictly followed when cells have reached the appropriate density. Day 1 Cells were seeded in 24 well dishes with minimum medium and allowed to adhere overnight. Day 2 Cells were starved in the serum-free conditioned medium. Day 3 Minimum medium were used, and YLB-01, YLB-02 and YLB-03 were added to the medium, in which the concentration was 0.1 nM, 1 nM, 10 nM, 30 nM, 100 nM, 300 nM, 1 μM, 3 μM and 10 μM, respectively; the cells were incubated at 37° C. for 1 h. The supernatant was collected after incubation for later use. Day 4 24 well dishes were washed and then dyed for 45-90 min, and then the OD value was measured for analysis. The cell strains used in the study were human primary vein endothelial cells (HPVEC) and human aortic smooth muscle cells (HASMC)."}}, "note": "Where two headings read alike, the source gives them in different places."}
{"smiles": "CNC(=O)c1ccc(CCC(=O)NCC(=O)N(C)c2ccc(Cl)c(COc3cccc4c3nc(OC)n4Cc3ccccn3)c2Cl)cc1", "note": "[YLB-01, 4-(3-2-((2,4-dichloro-3-((2-methoxy-1-(pyridine-2ylmethyl)-1H-benzo[d]imidazol-4-yloxy)methyl)phenyl)(methyl)amino-2-oxoethylamino)-3-oxopropyl)-N-methylbenzamid]", "values": [{"measurement": "Cumulative Penetration Rate of 9 Hours", "setting": "[1]; gels, 0.03% YLB-01, 4% propylene glycol, 0% azone", "value": 2.29, "unit": "%"}, {"measurement": "Cumulative Penetration Rate of 9 Hours", "setting": "[1]; gels, 0.3% YLB-01, 4% propylene glycol, 0% azone", "value": 4.43, "unit": "%"}, {"measurement": "Cumulative Penetration Rate of 9 Hours", "setting": "[1]; gels, 3% YLB-01, 4% propylene glycol, 0% azone", "value": 13.57, "unit": "%"}, {"measurement": "Cumulative Penetration Rate of 9 Hours", "setting": "[1]; liniments, 0.03% YLB-01, 2% propylene glycol + 2% azone", "value": 4.23, "unit": "%"}, {"measurement": "Cumulative Penetration Rate of 9 Hours", "setting": "[1]; liniments, 0.3% YLB-01, 2% propylene glycol + 2% azone", "value": 10.96, "unit": "%"}, {"measurement": "Cumulative Penetration Rate of 9 Hours", "setting": "[1]; liniments, 3% YLB-01, 2% propylene glycol + 2% azone", "value": 12.17, "unit": "%"}, {"measurement": "Cumulative Penetration Rate of 9 Hours", "setting": "[1]; ointments, 0.03% YLB-01, 5% propylene glycol + 2% azone", "value": 2.08, "unit": "%"}, {"measurement": "Cumulative Penetration Rate of 9 Hours", "setting": "[1]; ointments, 0.3% YLB-01, 5% propylene glycol + 2% azone", "value": 1.12, "unit": "%"}, {"measurement": "Cumulative Penetration Rate of 9 Hours", "setting": "[1]; ointments, 3% YLB-01, 5% propylene glycol + 2% azone", "value": 0.73, "unit": "%"}, {"measurement": "activation at 0.0001 µM", "setting": "[2]; 0.1 nM", "value": 0, "unit": "%"}, {"measurement": "activation at 0.001 µM", "setting": "[2]; 1 nM", "value": "7.69 ± 2.19", "unit": "%"}, {"measurement": "activation at 0.01 µM", "setting": "[2]; 10 nM", "value": "~50", "unit": "%"}, {"measurement": "activation at 0.03 µM", "setting": "[2]; 30 nM", "value": "53.7 ± 4.56", "unit": "%"}, {"measurement": "activation at 0.1 µM", "setting": "[2]; 100 nM", "value": "73.4 ± 2.7", "unit": "%"}, {"measurement": "activation at 0.3 µM", "setting": "[2]; 300 nM", "value": "83.8 ± 6.45", "unit": "%"}, {"measurement": "activation at 1 µM", "setting": "[2]; 1 μM", "value": "87 ± 3.76", "unit": "%"}, {"measurement": "activation at 3 µM", "setting": "[2]; 3 μM", "value": "87.8 ± 4.2", "unit": "%"}, {"measurement": "activation at 10 µM", "setting": "[2]; 10 μM", "value": "86.5 ± 7.44", "unit": "%"}, {"measurement": "EC50", "setting": "[3]; 1 h incubation at 37° C.", "value": "24.4 ± 3", "unit": "nM"}, {"measurement": "Emax", "setting": "[3]; read-out: Emax", "value": 87, "unit": "%"}, {"measurement": "Emax", "setting": "[3]", "value": "87.79 ± 4.2", "unit": "%"}]}
